{"source": "patent US12221481B2", "about": "“CD19 binding molecules and uses thereof” (Novartis AG, priority 2019, dated 2025)", "key": {"[1]": {"system": "T cells", "assay": "TBM and BBM mediated T cell proliferation (Example 20)", "assay_type": "cell-based, human", "settings": "in the presence of OCI-LY-19 and Toledo cells", "protocol": "Briefly, OCI-LY-19, Karpas422, and Toledo target cells stably expressing firefly luciferase were plated in a 96 well plate in T Cell Media (TCM) (RPMI-1640, ThermoFisher Scientific, Cat #11875-085), 10% FBS (Seradigm, Cat #1500-500), 1% L-Glutamine (Thermo Fisher Scientific, Cat #25830-081), 1% Non Essential Amino Acids (Thermo Fisher Scientific, Cat #11140-050), 1% Pen/Strep (Thermo Fisher Scientific, Cat #15070063), 1% HEPES (Thermo Fisher Scientific, Cat #15630080), Sodium Pyruvate (Thermo Fisher Scientific, Cat #11360-070), 0.1% Beta-mercaptoethanol (Thermo Fisher Scientific, Cat #21985-023)]. PBMCs previously isolated and cryopreserved from 2 Leukopak donors were thawed and Pan T cells were isolated (as described earlier). Isolated T cells were labelled with 5 μM Cell Trace Violet (CTV) (Thermo Fisher Scientific, Cat #C34557) following the manufacturer's protocol and were co-cultured with target cells at an E:T ratio of 1:3. A dilution series of CD3med TSP1, CD3hi TSP1, CD3hi BSP1, CD3hi TSP1C, and blinatumomab ranging from 2.5 nM-0.0006 nM was added to cells and the plates were incubated in a 5% CO2, 37° C. incubator for 96 hrs. […]"}, "[2]": {"system": "Karpas422 target cells", "assay": "Re-challenge RTCC assay, Karpas 422", "assay_type": "cell-based, human", "settings": "last re-challenge", "protocol": "OCI-LY-19 and Karpas422 target cells stably expressing firefly luciferase were plated in a Costar 6 well plate in T Cell Media (TCM). PBMCs previously isolated and cryopreserved from 2 Leukopak donors were thawed and Pan T cells were isolated (as described earlier). […] The plates were incubated for 4 days for OCI-LY-19 and 5 days for Karpas 422 cells. At the end of incubation, the killing of target cells was determined using the luminescence signal. The absolute T cell counts from each antibody treated condition was also determined. For the next round of rechallenge, it was ensured that the killing of target cells was equivalent across various antibody conditions. […] Additionally, a dose titration RTCC at a E:T of 1:1 and a concentration range of 2 nM-0.000001 nM was set-up using T cells from the different antibody treated conditions with a 4 day incubation used for each cell line. The killing of target cells was determined using the luminescence signal to generate dose response curves. At the end of the challenge, the above process was repeated once more for Karpas 422 and twice more for OCI-LY-19 cells."}}, "data": [{"substance": "blinatumomab: bispecific T cell engager, or BiTE, that binds to both CD19 and CD3 but lacks an Fc domain [reference compound]", "values": [{"measurement": "T cell proliferation, potency compared between constructs", "setting": "[1]", "value": "most potent T cell proliferation"}, {"measurement": "maximum lysis", "setting": "[2]", "value": "higher maximum lysis than CD3hi TSP1"}]}]}
